# Literature values in patent US20080292714A1, “BONE TARGETING OF DEGRADABLE DRUG FILLED NANOPARTICLES” (Semafore Pharmaceuticals Inc., priority 2003, published 2008).
# What was measured:
# [1] = portion not accumulated in skeleton
# [2] = tested on: C8 (mouse embryo fibroblasts transformed with Ela+ras) cells; conditions: 10 micromolar
# p53 = target: T1, p53 (Mus musculus, UniProt P02340)
# T1 construct: endogenous in cells; host or cells: living mice, C57BL and Balb/c strains
# T1 sequence (P02340 whole entry): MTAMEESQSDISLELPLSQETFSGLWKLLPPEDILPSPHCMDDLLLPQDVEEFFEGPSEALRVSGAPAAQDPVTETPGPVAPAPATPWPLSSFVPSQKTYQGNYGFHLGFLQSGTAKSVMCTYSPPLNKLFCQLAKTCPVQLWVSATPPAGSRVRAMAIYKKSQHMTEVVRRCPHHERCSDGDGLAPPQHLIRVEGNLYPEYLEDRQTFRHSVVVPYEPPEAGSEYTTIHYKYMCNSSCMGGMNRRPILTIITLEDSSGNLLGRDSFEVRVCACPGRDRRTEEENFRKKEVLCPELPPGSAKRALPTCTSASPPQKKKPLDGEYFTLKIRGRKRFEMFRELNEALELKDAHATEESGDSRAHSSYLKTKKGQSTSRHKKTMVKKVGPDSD
smiles,measurement,setting,value
O=P([O-])(O)CN(CCN(CP(=O)([O-])O)CP(=O)(O)O)CP(=O)([O-])O.[153Sm+3] [^153Sm-EDTMP],time after administration at which excretion is almost complete,[1],≤ 6 h
"Cc1ccc(C(=O)Cn2c3c(sc2=N)CCCC3)cc1 [pifithrin-α, 2-[2-imino-4,5,6,7-tetrahydro-1,3-benzothiazol-3(2H)-yl]-1-(4-methylphenyl)-1-ethanone]","inhibition of apoptosis induced by doxorubicin, etoposide, Taxol, cytosine arabinoside, UV light, gamma radiation",[2],inhibited apoptosis
same,tumors or pathological lesions in gamma-irradiated survivors,p53; 7 months post-irradiation,no tumors or pathological lesions were found
same,weight loss versus controls,p53; irradiated treated mice,less weight-loss than controls
same,protective effect in p53-null mice treated with radiation,p53; p53-null mice controls,no protective effect
same,rescue from 60% killing doses of gamma radiation,"p53; single i.p. injection 2.2 mg/kg, 8 Gy C57BL, 6 Gy Balb/c",completely rescued
